# Results from patent publication US4056625A, “Pesticidal compositions containing benzodioxole derivatives and methods of combating pests” (priority 1972, dated 1977).
# Read-outs that look alike come from different tables or passages of the source.
# Legend:
# Solubility = assay type: physicochemical; settings: compared with compound 5
# rats and mice = test: Mammalian toxicity (overall comparison); assay type: in vivo; settings: compared with compound 5
# Method: (§1) Mammalian toxicity was assessed by measuring the acute oral LD50 to rats and mice. Componds were dissolved or suspended in a 0.4% tragacanth solution and administered by stomach tube to the test animal. The mice used were 10 to 15 g weanlings of the Carshalton CFW strain whilst the rats were 30 to 40 g weanlings of Wystar strain. Three replicates per dosage rate were employed and the mortality was recorded daily for up to 5 days. The LD50 values were calculated as for those for insecticidal and acaricidal activity above.
# rats = test: Acute oral LD50 to rats (Example 76); assay type: in vivo, rat (Wystar strain); settings: rat female, by stomach tube in 0.4% tragacanth, up to 5 days
# Method: as §1
# [1] = Acute oral LD50 to rats (Example 76); assay type: in vivo, rat (Wystar strain); settings: in vivo, po; rat male, by stomach tube in 0.4% tragacanth, up to 5 days
# Method: as §1
# [2] = test system: adult female houseflies (Musca domestica); test: LC50 against adult female houseflies on filter papers (Example 70); assay type: in vivo; settings: for LC50 value: adult female houseflies, 24 hours, 0-6 scale (mg/ft^2); for activity against houseflies (in words): compared with compound 5
# Method: (§2) If complete kill was obtained at the highest dosage rate, the test was repeated using a logarithmically reducing dose regime until less than 50% mortality was recorded. The LC50 was then calculated from the line of best fit from the data plotted on log/provit analysis paper.
# (§3) Similarly LC50 values were obtained against various pests as described in Examples 70-73 where, however, the LC50 values are abbreviated on a 0-6 scale where
# LC50 values were obtained for each of Compounds 1, 2, 3, 4, 5 and 6 against adult female houseflies (Musca domestica), of the order Diptera. The tests were carried out by adding acetone solutions of the compounds to 9 cm diameter filter papers in the base of 9 cm diameter crystallising dishes, placing the houseflies in the dishes after the acetone had evaporated, closing the dishes with Petri dish lids and counting the mortality after 24 hours. The highest dosage rate employed was 1000 mg/ft^2 (10.65 g/m^2).
# [3] = test system: larvae of the sheep maggot fly (Lucilia sericata); test: LC50 against sheep maggot fly larvae on dental rolls (Example 71); assay type: in vivo; settings: for LC50: Lucilia sericata, read-out: LC50 value; for activity against sheep maggot fly (in words): compared with compound 5
# Method: as §2, §3
# Similarly, LC50 values were obtained for each of Compounds 1, 2, 3, 4, 5 and 6 against larvae of the sheep maggot fly (Lucilia sericata), of the order Diptera. The tests were carried out by placing newly hatched larvae on dental rolls contained in glass vials and soaked with 1 ml of blood serum containing the compound. The mortality was assessed after 24 hours. The highest dosage rate employed was 1000 ppm.
# [4] = test system: yellow fever mosquito (Aedes aegypti); test: Persistency against yellow fever mosquito on treated glass plates (Example 75); assay type: in vivo; settings: 100 mg/ft^2 (1.065 g/m^2), adult female mosquitos, 7 day intervals until less than 50% mortality
# Method: Persistency was measured against yellow fever mosquito (Aedes aegypti), of the order Diptera, by treating glass plates with acetone solutions of the compounds listed below to produce a deposit equivalent to 100 mg/ft^2 (1.065 g/m^2), and caging adult female mosquitos on these surfaces for 24 hours at 7 day intervals until less than 50% mortality was recorded.
# [5] = test system: adult female houseflies (Musca domestica); test: Housefly mortality on treated filter papers (Examples 32-40); assay type: in vivo; settings: 100 milligrams per square foot, after 24 hours
# Text: 9 centimeter diameter filter papers treated with aqueous acetone solutions of each of the compounds
# at rates equivalent to 100 milligrams per square foot (100 mgm./0.09 m^2.) of active ingredient were placed in 9 centimeter diameter Petri dishes. Batches of adult female houseflies (Musca domestica) lightly anaesthetised with carbon dioxide were then introduced into the dishes and a glass lid placed over each.
# [6] = test system: adult red spider mites (Tetranychus telarius); test: LC50 against adult red spider mites on sprayed French beans (Example 73); assay type: in vivo; settings: read-out: LC50 value
# Method: as §2, §3
# Similarly, LC50 values were obtained for each of Compounds 1, 2, 4, 5 and 6 against adult red spider mites (Tetranychus telarius), of the order Acarina. The tests were carried out by spraying infected French beans with a 50% acetone water solution of the compound, containing 500 ppm of Lissapol NX as a wetting agent, and recording the mortality after 48 hours. The highest dosage rate employed was 1000 ppm which is equivalent to 10 lb/acre (11.20 kg/ha).
# [7] = Acute oral LD50 to mice (Example 76); design: species or system mouse (Carshalton CFW strain); settings: in vivo, mouse, by stomach tube in 0.4% tragacanth, up to 5 days
# Method: as §1
# [8] = test system: 2nd stage nymph of the German cockroach (Blattella germanica); test: LC50 against German cockroach nymphs in treated glass tubes (Example 69); assay type: in vivo; settings: for LC50 value: 2nd stage nymph German cockroach, 48 hours, 0-6 scale
# Method: Compounds 2 and 4 and also 2,2-dimethyl-1,3- benzodioxol-4-yl N-methylcarbamate(compound 5) and 2,2-dimethyl-1,3-benzodioxol-4-yl N-acetyl-N-methylcarbamate (compound 6) were tested for activity against the 2nd stage nymph of the German cockroach (Blattella germanica), of the order Orthoptera, by treating the walls of glass tubes (9.0 cm high × 4.5 cm diameter) with acetone solutions of the compounds and after the acetone had evaporated caging the insects in the tubes for 48 hours. The highest dosage rate employed was 50 mg/ft^2 (532 mg/m^2).
# as §2
# The LC50 values are abbreviated on a 0-6 scale where
# [9] = test system: German cockroaches (Blattella germanica); test: Persistency against German cockroaches on treated glass plates (Example 74); assay type: in vivo; settings: 100 mg/ft^2 (1.065 g/m^2), 2nd stage nymphs, 7 day intervals until less than 50% mortality
# Method: Persistency was measured against German cockroaches (Blattella germanica), or the order Orthoptera, by treating glass plates with acetone solutions of the compunds listed below to produce a deposit equivalent to 100 mg/ft^2 (1.065 g/m^2), and caging 2nd stage nymph cockroaches on these surfaces for 48 hours at 7 day intervals until less than 50% mortality was recorded.
# [10] = test system: sheep maggot fly (Lucila sericata); test: Persistency on sheep against sheep maggot fly; assay type: in vivo; settings: compared with compound 5
# [11] = test system: larvae of the cattle tick (Boophilus microplus); test: LC50 against cattle tick larvae (Example 72); assay type: in vivo; settings: Rhipicephalus microplus, 24 hours, 0-6 scale (ppm)
# Method: as §2, §3
# Similarly, LC50 values were obtained for each of Compounds 2 and 4 against larvae of the cattle tick (Boophilus microplus), of the order Acarina. The tests were carried out evaporating 1 ml of an acetone solution of the compound on 9 cm diameter filter papers, folding the papers twice in half after drying to give quadrant shaped packets and sealing the tick larvae therein for 24 hours by means of a paper clip. The highest dosage rate employed was 1000 ppm.
# [12] = test system: domestic and public health insect pests; test: Indoor treatment against domestic and public health insect pests; assay type: in vivo; settings: 200 mg per square meter, aqueous spray containing 0.25% active ingredient; ants, bed bugs, fleas, houseflies, silverfish, mosquitoes, wasps, carpet beetles, crickets, cockroaches
# Text: In a preferred application, the compounds and especially 2,2-dimethyl-1,3-benzodioxol-4-yl N-methylcarbamate are used to combat domestic and public health insect pests. For this use, the compounds are generally applied indoors, e.g. in buildings or on ships, for example in food preparation or storage areas e.g. in houses, flats, warehouses and ships. The compounds are suitably applied at a rate of 50-2000, preferably about 50-1,000, for example 200, mg per square meter.
# [13] = test system: first instar larvae of the sheep blowfly (Lucilia sericata); test: Sheep blowfly larvae on treated cotton wool pads (Examples 53-60); assay type: in vivo; settings: 1/2 ml. of acetone solution on cotton wool pads, after 24 hours
# Method: Cylindrical pads of cotton wool, approximate diameter 1 cm., length 2 cms. were treated with 1/2 ml. of acetone solutions of the following carbamates:
# After leaving for 12 hours to dry, the pads were treated with 1 ml. of sheep blood serum and infested with 20 first instar larvae of the sheep blowfly (Lucilia sericata). After 24 hours, the blowflies were examined and found to be all dead; insects similarly infested on untreated pads were unaffected.
# [14] = test system: second instar larvae of the cabbage white butterfly (Pieris brassicae); test: Cabbage white butterfly larvae on treated cabbage leaf discs (Examples 41-48); assay type: in vivo; settings: 10, 5, 1, 0.5 and 0.25 pounds per acre, three replications, after 48 hours
# Text: 7 centimeter diameter circular discs of cabbage leaves were painted with 1 milliliter aqueous acetone solutions of each of the following compounds:
# in each case at concentrations equivalent to leaf applications of 10, 5, 1, 0.5 and 0.25 pounds per acre (11.2, 5.6, 1.12, 0.56 and 0.28 kg./hectare) of active ingredient. When the deposit on the leaf discs had dried, each leaf disc was placed in a 9 centimeter diameter Petri dish, infested with ten second instar larvae of the cabbage white butterfly (Pieris brassicae) and covered with a glass lid. Three replications were made with each compound at each concentration level.
# [15] = test system: adult apterous vetch aphids (Megoura viciae); test: Vetch aphids on sprayed field beans (Examples 49 and 50); assay type: in vivo; settings: 100 parts per million, 50 gallons per acre, 24 hours
# Text: Aqueous suspensions containing 100 parts per million of 2,2-dimethyl-1,3-benzodioxol-4-yl N-methylcarbamate and 2,2-dimethyl-1,3-benzodioxol-4-yl N-acetyl-N-methylcarbamate were sprayed at a rate equivalent to 50 gallons per acre (585 liters per hectare) on young field beans (Vicia faba) infested with adult apterous vetch aphids (Megoura viciae). After treatment the plants were enclosed in glass cages with gauze tops for ventilation.
# [16] = test system: first stage larvae of the cattle tick, Boophilus microplus; test: Cattle tick larvae in treated filter paper packets (Example 65); assay type: in vivo; settings: 30 parts per million, 25° C, 24 hours
# Method: Filter papers, diameter 9 cm., were treated with 1 ml. of acetone solutions containing 30 parts per million of 2,2-dimethyl-1,3-benzodioxol-4-yl N-methylcarbamate or 7-chloro-2,2-dimethyl-1,3-benzodioxol-4-yl N-methylcarbamate. When they had dried, they were folded into quadrant shaped packets, infested with 20 first stage larvae of the cattle tick, Boophilus microplus, closed with a metal clip and kept at 25° C for 24 hours.
smiles,measurement,setting,value
"CC(=O)N(C)C(=O)Oc1cccc2c1OCO2 [Compound 1, 1,3-benzodioxol-4-yl N-acetyl-N-methylcarbamate]",solubility in organic solvents (in words),Solubility,higher solubility in organic solvents than is compound 5
same,mammalian toxicity (in words),rats and mice,lower mammalian toxicity than does compound 5
same,"Acute oral LD50, rat female",rats,> 1000 mg/kg body wt.
same,LD50 at 120 h,[1],> 1000 mg/kg
same,LC50 value,[2],5 (3-9 mg/ft^2 (32-106 mg/m^2))
same,activity against houseflies (in words),[2],as good or better activity against houseflies than does compound 5
same,LC50,[3]; 24 h,30 to 99 µg/mL
same,Persistency,[4],35 days
same,mortality of houseflies,[5],all found to be dead
same,LC50,[6]; 48 h,100 to 299 µg/mL
same,LD50 at 120 h,[7],> 4000 mg/kg
"CCC(=O)N(C)C(=O)Oc1cccc2c1OC(C)(C)O2 [Compound 2, 2,2-dimethyl-1,3-benzodioxol-4-yl N-propionyl-N-methylcarbamate]",solubility in organic solvents (in words),Solubility,higher solubility in organic solvents than is compound 5
same,mammalian toxicity (in words),rats and mice,lower mammalian toxicity than does compound 5
same,LC50 value,[2],5 (3-9 mg/ft^2 (32-106 mg/m^2))
same,activity against houseflies (in words),[2],as good or better activity against houseflies than does compound 5
same,LC50,[3]; 24 h,3 to 9 µg/mL
same,activity against sheep maggot fly (in words),[3],as active as compound 5 against sheep maggot fly
same,LC50 value,[8],6 (<0.5 mg/ft^2 (<5.3 mg/m^2))
same,activity against cockroaches (in words),[8],outstandingly good activity against cockroaches
same,Persistency,[9],21 to 28 days
same,persistency on sheep against sheep maggot fly (in words),[10],much better persistency on sheep
same,LC50,[11],3 to 9 µg/mL
same,LC50,[6]; 48 h,300 to 1000 µg/mL
same,LD50 at 120 h,[7],280 mg/kg
"CCCC(=O)N(C)C(=O)Oc1cccc2c1OC(C)(C)O2 [Compound 3, 2,2-dimethyl-1,3-benzodioxol-4-yl N-butyryl-N-methylcarbamate]",solubility in organic solvents (in words),Solubility,higher solubility in organic solvents than is compound 5
same,mammalian toxicity (in words),rats and mice,lower mammalian toxicity than does compound 5
same,"Acute oral LD50, rat female",rats,> 1000 mg/kg body wt.
same,LD50 at 120 h,[1],> 1000 mg/kg
same,LC50 value,[2],4 (10-29 mg/ft^2 (107-310 mg/m^2))
same,activity against houseflies (in words),[2],as good or better activity against houseflies than does compound 5
same,LC50,[3]; 24 h,3 to 9 µg/mL
same,activity against sheep maggot fly (in words),[3],as active as compound 5 against sheep maggot fly
same,mortality of houseflies,[5],all found to be dead
same,LD50 at 120 h,[7],2000 mg/kg
"CCCCC(=O)N(C)C(=O)Oc1cccc2c1OC(C)(C)O2 [Compound 4, 2,2-dimethyl-1,3-benzodioxol-4-yl N-pentanoyl-N-methylcarbamate]",solubility in organic solvents (in words),Solubility,higher solubility in organic solvents than is compound 5
same,mammalian toxicity (in words),rats and mice,lower mammalian toxicity than does compound 5
same,LC50 value,[2],4 (10-29 mg/ft^2 (107-310 mg/m^2))
same,activity against houseflies (in words),[2],as good or better activity against houseflies than does compound 5
same,LC50,[3]; 24 h,30 to 99 µg/mL
same,LC50 value,[8],5 (0.15-0.5 mg/ft^2 (1.6-5.3 mg/m^2))
same,activity against cockroaches (in words),[8],outstandingly good activity against cockroaches
same,Persistency,[9],> 35 days
same,persistency on sheep against sheep maggot fly (in words),[10],much better persistency on sheep
same,LC50,[11],30 to 99 µg/mL
same,LC50,[6]; 48 h,300 to 1000 µg/mL
same,LD50 at 120 h,[7],170 mg/kg
"CNC(=O)Oc1cccc2c1OC(C)(C)O2 [Compound 5, 2,2-dimethyl-1,3-benzodioxol-4-yl N-methylcarbamate]",effectiveness against domestic and public health pests (in words),[12],effective against a wide range of such pests
same,LD50 at 120 h,[1],45 mg/kg
same,mortality of sheep blowfly larvae,[13],all dead
same,LC50 value,[2],4 (10-29 mg/ft^2 (107-310 mg/m^2))
same,LC50,"[3]; sheep maggot fly larvae, 24 hours, 0-6 scale (ppm)",3 to 9 µg/mL
same,LC50 value,[8],5 (0.15-0.5 mg/ft^2 (1.6-5.3 mg/m^2))
same,activity against cockroaches (in words),[8],outstandingly good activity against cockroaches
same,mortality of cabbage white butterfly larvae,[14],all found to be dead
same,mortality of houseflies,[5],all found to be dead
same,LC50,"[6]; adult red spider mites, 48 hours, 0-6 scale (ppm)",> 1000 µg/mL
same,kill of vetch aphids,[15],complete kill of the aphids in 24 hours
same,LD50 at 120 h,[7],45 mg/kg
same,mortality of cattle tick larvae,[16],all the ticks in the treated filter papers were dead
